Active and inactive are the calls of the source. No rule for the calls is given here.
Test system: CCRIS mutagenicity, Ames/micronucleus/aberration tests
Assay: CCRIS mutagenicity studies
[1] = Test System: AMES SALMONELLA TYPHIMURIUM, Strain/Indicator: TA1537, Metabolic Activation: NONE, Method: STANDARD PLATE
[2] = Test System: AMES SALMONELLA TYPHIMURIUM, Strain/Indicator: TA98, Metabolic Activation: NONE, Method: STANDARD PLATE
[3] = Test System: AMES SALMONELLA TYPHIMURIUM, Strain/Indicator: TA98, Metabolic Activation: RAT, LIVER, S-9, AROCLOR 1254, Method: STANDARD PLATE
[4] = Test System: AMES SALMONELLA TYPHIMURIUM, Strain/Indicator: TA100, Metabolic Activation: NONE, Method: STANDARD PLATE
[5] = Test System: AMES SALMONELLA TYPHIMURIUM, Strain/Indicator: TA100, Metabolic Activation: RAT, LIVER, S-9, AROCLOR 1254, Method: STANDARD PLATE
[6] = Test System: AMES SALMONELLA TYPHIMURIUM, Strain/Indicator: TA98, Metabolic Activation: NONE, Method: PREINCUBATION
[7] = Test System: AMES SALMONELLA TYPHIMURIUM, Strain/Indicator: TA100, Metabolic Activation: NONE, Method: PREINCUBATION
[8] = Test System: AMES SALMONELLA TYPHIMURIUM, Strain/Indicator: TA102, Metabolic Activation: NONE, Method: PREINCUBATION

SMILES: CN(C)CCNC(=O)c1ccc2ccc3cccnc3c2n1
- mutagenic call [1]: active; positive

SMILES: C#CC1(O)CC[C@H]2[C@@H]3CCC4=CCCC[C@@H]4[C@H]3CC[C@@]21C (stereo partly drawn)
- mutagenic call (End Point: IN VIVO CHROMOSOMAL ABERRATIONS, Test System: BONE MARROW CELLS, Species: MOUSE, Strain/Sex: SWISS ALBINO/FEMALE, Route: IP INJECTION): active; positive (structural changes)

SMILES: FC(F)(F)c1ccc(Cl)cc1
- mutagenic call (Test System: AMES SALMONELLA TYPHIMURIUM, Strain/Indicator: TA98, Metabolic Activation: HAMSTER, LIVER, S-9, AROCLOR 1254, Method: STANDARD PLATE): inactive; negative
- mutagenic call [2]: inactive; negative
- mutagenic call [3]: inactive; negative
- mutagenic call (Test System: AMES SALMONELLA TYPHIMURIUM, Strain/Indicator: TA100, Metabolic Activation: HAMSTER, LIVER, S-9, AROCLOR 1254, Method: STANDARD PLATE): inactive; negative
- mutagenic call [4]: inactive; negative
- mutagenic call [5]: inactive; negative
- mutagenic call (Test System: AMES SALMONELLA TYPHIMURIUM, Strain/Indicator: TA1535, Metabolic Activation: HAMSTER, LIVER, S-9, AROCLOR 1254, Method: STANDARD PLATE): inactive; negative
- mutagenic call (Test System: AMES SALMONELLA TYPHIMURIUM, Strain/Indicator: TA1535, Metabolic Activation: NONE, Method: STANDARD PLATE): inactive; negative
- mutagenic call (Test System: AMES SALMONELLA TYPHIMURIUM, Strain/Indicator: TA1535, Metabolic Activation: RAT, LIVER, S-9, AROCLOR 1254, Method: STANDARD PLATE): inactive; negative
- mutagenic call (Test System: AMES SALMONELLA TYPHIMURIUM, Strain/Indicator: TA1537, Metabolic Activation: HAMSTER, LIVER, S-9, AROCLOR 1254, Method: STANDARD PLATE): inactive; negative
- mutagenic call [1]: inactive; negative
- mutagenic call (Test System: AMES SALMONELLA TYPHIMURIUM, Strain/Indicator: TA1537, Metabolic Activation: RAT, LIVER, S-9, AROCLOR 1254, Method: STANDARD PLATE): inactive; negative
- mutagenic call (Test System: AMES SALMONELLA TYPHIMURIUM, Strain/Indicator: TA1538, Metabolic Activation: HAMSTER, LIVER, S-9, AROCLOR 1254, Method: STANDARD PLATE): inactive; negative
- mutagenic call (Test System: AMES SALMONELLA TYPHIMURIUM, Strain/Indicator: TA1538, Metabolic Activation: NONE, Method: STANDARD PLATE): inactive; negative
- mutagenic call (Test System: AMES SALMONELLA TYPHIMURIUM, Strain/Indicator: TA1538, Metabolic Activation: RAT, LIVER, S-9, AROCLOR 1254, Method: STANDARD PLATE): inactive; negative
- mutagenic call (Test System: MOUSE LYMPHOMA, Strain/Indicator: L5178Y (TK+/TK-), Metabolic Activation: NONE, Method: SUSPENSION/PLATE): inactive; negative. reevaluation of results: negative
- mutagenic call (Test System: MOUSE LYMPHOMA, Strain/Indicator: L5178Y (TK+/TK-), Metabolic Activation: RAT, LIVER, S-9, AROCLOR 1254, Method: SUSPENSION/PLATE): inactive; negative. reevaluation of results: equivocal

SMILES: Cc1cc2c(C)c3ccccc3nc2c2ccccc12
- mutagenic call (Test System: AMES SALMONELLA TYPHIMURIUM, Strain/Indicator: TA97A, Metabolic Activation: NONE, Method: PREINCUBATION): active; positive
- mutagenic call [6]: inactive; negative
- mutagenic call [7]: active; positive
- mutagenic call [8]: active; positive

SMILES: COCCOCCOP1(OCCOCCOC)=NP(OCCOCCOC)(OCCOCCOC)=NP(OCCOCCOC)(OCCOCCOC)=N1
- mutagenic call [2]: inactive; negative
- mutagenic call [3]: inactive; negative
- mutagenic call [4]: inactive; negative
- mutagenic call [5]: inactive; negative

SMILES: CCOC(=O)OCC
- mutagenic call (Test System: AMES SALMONELLA TYPHIMURIUM, Strain/Indicator: TA98, Metabolic Activation: HAMSTER, LIVER, S-9, AROCLOR 1254 (10%), Method: PREINCUBATION): inactive; negative
- mutagenic call [6]: inactive; negative
- mutagenic call (Test System: AMES SALMONELLA TYPHIMURIUM, Strain/Indicator: TA98, Metabolic Activation: RAT, LIVER, S-9, AROCLOR 1254 (10%), Method: PREINCUBATION): inactive; negative
- mutagenic call (Test System: AMES SALMONELLA TYPHIMURIUM, Strain/Indicator: TA100, Metabolic Activation: HAMSTER, LIVER, S-9, AROCLOR 1254 (10%), Method: PREINCUBATION): inactive; negative
- mutagenic call [7]: inactive; negative
- mutagenic call (Test System: AMES SALMONELLA TYPHIMURIUM, Strain/Indicator: TA100, Metabolic Activation: RAT, LIVER, S-9, AROCLOR 1254 (10%), Method: PREINCUBATION): inactive; negative
- mutagenic call (Test System: AMES SALMONELLA TYPHIMURIUM, Strain/Indicator: TA1535, Metabolic Activation: HAMSTER, LIVER, S-9, AROCLOR 1254 (10%), Method: PREINCUBATION): inactive; negative
- mutagenic call (Test System: AMES SALMONELLA TYPHIMURIUM, Strain/Indicator: TA1535, Metabolic Activation: NONE, Method: PREINCUBATION): inactive; negative
- mutagenic call (Test System: AMES SALMONELLA TYPHIMURIUM, Strain/Indicator: TA1535, Metabolic Activation: RAT, LIVER, S-9, AROCLOR 1254 (10%), Method: PREINCUBATION): inactive; negative
- mutagenic call (Test System: AMES SALMONELLA TYPHIMURIUM, Strain/Indicator: TA1537, Metabolic Activation: HAMSTER, LIVER, S-9, AROCLOR 1254 (10%), Method: PREINCUBATION): inactive; negative
- mutagenic call (Test System: AMES SALMONELLA TYPHIMURIUM, Strain/Indicator: TA1537, Metabolic Activation: NONE, Method: PREINCUBATION): inactive; negative
- mutagenic call (Test System: AMES SALMONELLA TYPHIMURIUM, Strain/Indicator: TA1537, Metabolic Activation: RAT, LIVER, S-9, AROCLOR 1254 (10%), Method: PREINCUBATION): inactive; negative

SMILES: Cc1ccc(Cl)cc1[N+](=O)[O-]
- mutagenic call [6]: inactive; negative
- mutagenic call (Test System: AMES SALMONELLA TYPHIMURIUM, Strain/Indicator: TA98, Metabolic Activation: RAT, LIVER, S-9, KANECHLOR 500, Method: PREINCUBATION): inactive; negative
- mutagenic call [7]: inactive; negative
- mutagenic call (Test System: AMES SALMONELLA TYPHIMURIUM, Strain/Indicator: TA100, Metabolic Activation: RAT, LIVER, S-9, KANECHLOR 500, Method: PREINCUBATION): inactive; negative

SMILES: Cc1ccc(S(=O)(=O)OCc2ccc([N+](=O)[O-])cc2)cc1
- mutagenic call [4]: active; positive

SMILES: CC(C)(C)c1cc(-c2ccccc2)ccc1[N+](=O)[O-]
- mutagenic call [2]: inactive; negative
- mutagenic call (Test System: AMES SALMONELLA TYPHIMURIUM, Strain/Indicator: TA98, Metabolic Activation: S-9, Method: STANDARD PLATE): inactive; negative
- mutagenic call [4]: inactive; negative
- mutagenic call (Test System: AMES SALMONELLA TYPHIMURIUM, Strain/Indicator: TA100, Metabolic Activation: S-9, Method: STANDARD PLATE): inactive; negative

SMILES: O=C1c2ccccc2-c2ccc3ccc4ccccc4c3c21
- mutagenic call [5]: inactive; negative

SMILES: CC1=NCCc2c1[nH]c1cc(O)ccc21
- mutagenic call (Test System: AMES SALMONELLA TYPHIMURIUM, Strain/Indicator: TA97, Metabolic Activation: NONE, Method: PREINCUBATION): inactive; negative
- mutagenic call (Test System: AMES SALMONELLA TYPHIMURIUM, Strain/Indicator: TA97, Metabolic Activation: RAT, LIVER, S-9, AROCLOR 1254, Method: PREINCUBATION): inactive; negative
- mutagenic call [6]: inactive; negative
- mutagenic call (Test System: AMES SALMONELLA TYPHIMURIUM, Strain/Indicator: TA98, Metabolic Activation: RAT, LIVER, S-9, AROCLOR 1254, Method: PREINCUBATION): inactive; negative
- mutagenic call [7]: inactive; negative
- mutagenic call (Test System: AMES SALMONELLA TYPHIMURIUM, Strain/Indicator: TA100, Metabolic Activation: RAT, LIVER, S-9, AROCLOR 1254, Method: PREINCUBATION): inactive; negative
- mutagenic call [8]: inactive; negative
- mutagenic call (Test System: AMES SALMONELLA TYPHIMURIUM, Strain/Indicator: TA102, Metabolic Activation: RAT, LIVER, S-9, AROCLOR 1254, Method: PREINCUBATION): inactive; negative

SMILES: C=C(C)C1CC=C(C=O)CC1 (stereo not drawn)
- mutagenic call (End Point: IN VIVO MICRONUCLEUS, Test System: BONE MARROW POLYCHROMATIC ERYTHROCYTES, Species: MOUSE, Strain/Sex: DDY/MALE, Route: IP): inactive; negative

— PubChem BioAssay AID1259407 (Chemical Carcinogenesis Research Information System (CCRIS), 2018)
